Assay results taken from US9725445B2, “Cycloalkyl nitrile pyrazolo pyridones as Janus kinase inhibitors” (Merck Sharp & Dohme Corp., priority 2013, dated 2017).
Where a name gives a salt, the structure may show the parent alone.

Columns and labels:
JAK2 = JAK2 (Homo sapiens (Human), UniProt O60674); experiment: Jak biochemical HTRF assay, JAK2; conditions: HTRF biochemical assay, recombinant GST-tagged catalytic domain; read-out: JAK2 IC50
JAK1 = JAK1 (Homo sapiens (Human), UniProt P23458); experiment: Jak biochemical HTRF assay, JAK1; conditions: HTRF biochemical assay, recombinant GST-tagged catalytic domain; read-out: JAK1 IC50
Sequence of JAK1 (P23458 875-1153): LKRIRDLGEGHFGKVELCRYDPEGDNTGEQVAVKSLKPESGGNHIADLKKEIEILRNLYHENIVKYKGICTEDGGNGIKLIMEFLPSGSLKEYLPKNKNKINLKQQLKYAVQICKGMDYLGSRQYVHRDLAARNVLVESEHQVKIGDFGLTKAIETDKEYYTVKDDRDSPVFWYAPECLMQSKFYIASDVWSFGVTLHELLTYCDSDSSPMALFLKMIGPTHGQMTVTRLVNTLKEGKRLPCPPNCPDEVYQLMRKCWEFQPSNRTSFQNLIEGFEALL

Sequence of JAK2 (O60674 849-1124): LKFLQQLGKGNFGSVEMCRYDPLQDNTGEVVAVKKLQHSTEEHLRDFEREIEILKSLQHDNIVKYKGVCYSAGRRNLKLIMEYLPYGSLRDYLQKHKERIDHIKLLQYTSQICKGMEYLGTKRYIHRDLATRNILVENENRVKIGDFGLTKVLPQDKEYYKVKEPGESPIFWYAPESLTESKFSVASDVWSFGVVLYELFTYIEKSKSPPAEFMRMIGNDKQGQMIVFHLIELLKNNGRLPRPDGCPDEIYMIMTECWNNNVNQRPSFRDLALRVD

Row | SMILES | IC50 (JAK2) [nM] | IC50 (JAK1) [nM]
1 | N#C[C@H]1CCCC[C@@H]1n1nc(Nc2ccc3c(c2)CN(CCO)S3(=O)=O)c2c(=O)[nH]ccc21 [Example 3-80, (1S,2S)-2-(3-{[2-(2-hydroxyethyl)-1,1-dioxido-2,3-dihydro-1,2-benzisothiazol-5-yl]amino}-4-oxo-4,5-dihydro-1H-pyrazolo[4,3-c]pyridin-1-yl)cyclohexanecarbonitrile] | 0.92 | 0.079
2 | CS(=O)(=O)c1ccc(Nc2nn([C@@H]3CCCC[C@H]3C#N)c3cc[nH]c(=O)c23)cc1 [Example 3-4, (1R,2R)-2-(3-{[4-(methylsulfonyl)phenyl]amino}-4-oxo-4,5-dihydro-1H-pyrazolo[4,3-c]pyridin-1-yl)cyclohexanecarbonitrile] | 16 | 9.4
3 | Cc1cc(Nc2nn([C@H]3CCCC[C@@H]3C#N)c3cc[nH]c(=O)c23)ccc1C(=O)N1CCOCC1 [Example 3-68, (1S,2S)-2-(3-{[3-methyl-4-(morpholin-4-ylcarbonyl)phenyl]amino}-4-oxo-4,5-dihydro-1H-pyrazolo[4,3-c]pyridin-1-yl)cyclohexanecarbonitrile] | 0.28 | 0.47
4 | N#C[C@@H]1CCCC[C@H]1n1nc(Nc2ccnc(F)c2)c2c(=O)[nH]ccc21 [Example 3-1, (1R,2R)-2-{3-[(2-Fluoropyridin-4-yl)amino]-4-oxo-4,5-dihydro-1H-pyrazolo[4,3-c]pyridin-1-yl}cyclohexanecarbonitrile] | 97 | 18
5 | CCNC(c1ccc(Nc2nn([C@H]3CCC[C@@H]3C#N)c3cc[nH]c(=O)c23)cc1)C(F)(F)F (single isomer, unassigned) [Example 3-113, (1S,2S)-2-[3-({4-[(1R or 1S)-1-(ethylamino)-2,2,2-trifluoroethyl]phenyl}amino)-4-oxo-4,5-dihydro-1H-pyrazolo[4,3-c]pyridin-1-yl]cyclopentanecarbonitrile] | 0.31 | 0.15
6 | Cc1cc(Nc2nn([C@H]3CCCC[C@@H]3C#N)c3cc[nH]c(=O)c23)ccc1C(=O)N1CCCC1 [Example 3-27, (1S,2S)-2-(3-{[3-methyl-4-(pyrrolidin-1-ylcarbonyl)phenyl]amino}-4-oxo-4,5-dihydro-1H-pyrazolo[4,3-c]pyridin-1-yl)cyclohexanecarbonitrile] | 0.2 | 0.13
7 | N#C[C@H]1CCCC[C@@H]1n1nc(Nc2ccc(Cl)cc2)c2c(=O)[nH]ccc21 [Example 3-91, (1S,2S)-2-(3-((4-chlorophenyl)amino)-4-oxo-4,5-dihydro-1H-pyrazolo[4,3-c]pyridin-1-yl)cyclohexanecarbonitrile] | 10.3 | 0.45
8 | CC(C)(C)OC(=O)NCc1cccc(Nc2nn([C@H]3CCCC[C@@H]3C#N)c3cc[nH]c(=O)c23)c1 [Example 3-16, tert-butyl [3-({1-[(1S,2S)-2-cyanocyclohexyl]-4-oxo-4,5-dihydro-1H-pyrazolo[4,3-c]pyridin-3-yl}amino)benzyl]carbamate] | 3.3 | 1.4
9 | N#C[C@H]1C[C@H](O)CC[C@@H]1n1nc(Nc2ccc(Cl)cc2)c2c(=O)[nH]ccc21 [Example 3-90, (1S,2S,5R)-2-(3-((4-chlorophenyl)amino)-4-oxo-4,5-dihydro-1H-pyrazolo[4,3-c]pyridin-1-yl)-5-hydroxycyclohexanecarbonitrile] | 7.3 | 0.28
10 | CC(C)[C@H](C)N1Cc2ccc(Nc3nn([C@H]4CCCC[C@@H]4C#N)c4cc[nH]c(=O)c34)cc2C1 [Example 3-148, (1S,2S)-2-[3-({2-[(1S)-1,2-dimethylpropyl]-2,3-dihydro-1H-isoindol-5-yl}amino)-4-oxo-4,5-dihydro-1H-pyrazolo[4,3-c]pyridin-1-yl]cyclohexanecarbonitrile] | 0.43 | 0.31
11 | Cn1cc(-c2ccc(Nc3nn([C@H]4CCCC[C@@H]4C#N)c4cc[nH]c(=O)c34)cc2Cl)cn1 [Example 3-146, (1S,2S)-2-(3-{[3-chloro-4-(1-methyl-1H-pyrazol-4-yl)phenyl]amino}-4-oxo-4,5-dihydro-1H-pyrazolo[4,3-c]pyridin-1-yl)cyclohexanecarbonitrile] | 6.4 | 0.29

Continued, values first:

Row | IC50 (JAK2) [nM] | IC50 (JAK1) [nM] | SMILES
12 | 660 | 25 | N#C[C@@H]1C[C@@H](N2CCC2)CC[C@H]1n1nc(Nc2ccc(C(F)(F)F)cc2)c2c(=O)[nH]ccc21 [Example 5-9, (1R,2R,5S)-5-(azetidin-1-yl)-2-(4-oxo-3-((4-(trifluoromethyl)phenyl)amino)-4,5-dihydro-1H-pyrazolo[4,3-c]pyridin-1-yl)cyclohexanecarbonitrile]
13 | 0.57 | 0.38 | N#C[C@H]1CCCC[C@@H]1n1nc(Nc2ccc([C@@H]3C[C@H]4CC[C@@H](C3)N4)cc2)c2c(=O)[nH]ccc21 [Example 20-1, (1S,2S)-2-(3-((4-((1R,3S,5S)-8-azabicyclo[3.2.1]octan-3-yl)phenyl)amino)-4-oxo-4,5-dihydro-1H-pyrazolo[4,3-c]pyridin-1-yl)cyclohexanecarbonitrile hydrochloride]
14 | 2.9 | 1 | CS(=O)(=O)c1ccc(Nc2nn([C@H]3CCCC[C@@H]3C#N)c3cc[nH]c(=O)c23)cc1CN [Example 6-4, (1S,2S)-2-(3-((3-(aminomethyl)-4-(methylsulfonyl)phenyl)amino)-4-oxo-4,5-dihydro-1H-pyrazolo[4,3-c]pyridin-1-yl)cyclohexanecarbonitrile]
15 | 22 | 0.96 | CN(C)[C@@H]1CC[C@H](n2nc(Nc3ccc(OC(F)(F)F)cc3)c3c(=O)[nH]ccc32)[C@@H](C#N)C1 [Example 5-25, (1S,2S,5R)-5-(dimethylamino)-2-(4-oxo-3-((4-(trifluoromethoxy)phenyl)amino)-4,5-dihydro-1H-pyrazolo[4,3-c]pyridin-1-yl)cyclohexanecarbonitrile]
16 | 0.14 | 0.059 | N#C[C@H]1CCCC[C@@H]1n1nc(Nc2ccc3c(c2)CN([C@H]2CC[C@H](C(=O)O)CC2)S3(=O)=O)c2c(=O)[nH]ccc21 [Example 16-3, (1R,4R)-4-(5-((1-((1S,2S)-2-cyanocyclohexyl)-4-oxo-4,5-dihydro-1H-pyrazolo[4,3-c]pyridin-3-yl)amino)-1,1-dioxidobenzo[d]isothiazol-2(3H)-yl)cyclohexanecarboxylic acid]
17 | 8.1 | 1 | N#C[C@H]1CCCC[C@@H]1n1nc(Nc2ccc(C3(C(F)(F)F)CC3)cc2)c2c(=O)[nH]ccc21 [Example 15-19]
18 | 3.6 | 0.51 | N#C[C@H]1CCCC[C@@H]1n1nc(Nc2ccc(-c3ncon3)cc2)c2c(=O)[nH]ccc21 [Example 15-3, (1S,2S)-2-(3-{[4-(1,2,4-oxadiazol-3-yl)phenyl]amino}-4-oxo-4,5-dihydro-1H-pyrazolo[4,3-c]pyridin-1-yl)cyclohexanecarbonitrile]
19 | 0.41 | 0.078 | N#C[C@H]1CCCC[C@@H]1n1nc(Nc2ccc3c(c2)CN(C2CCOCC2)C3=O)c2c(=O)[nH]ccc21 [Example 15-59, (1S,2S)-2-(4-oxo-3-{[1-oxo-2-(tetrahydro-2H-pyran-4-yl)-2,3-dihydro-1H-isoindol-5-yl]amino}-4,5-dihydro-1H-pyrazolo[4,3-c]pyridin-1-yl)cyclohexanecarbonitrile]
